“And” between values parts separate entries of the source, which are not always exact repeats. Identical values can stand only once. Toxic doses and inconclusive results are not listed. How the source made its calls: active means survival T/C of 150% or more; inactive means T/C below 125% in these data. Peptide text beside a SMILES is read from it. * marks the point of attachment. Boc = CC(C)(C)OC(=O)*; NHNH2 = NN*
Test system: P388 leukemia ip, CD2F1 mice, survival T/C
Experiment: NCI In Vivo Anticancer Drug Screen. Data for tumor model P388 Leukemia (intraperitoneal) in CD2F1 (CDF1) mice
Settings: endpoint: median survival time, higher = longer survival
How it was run: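 Mice carrying the transplanted tumor received test compound or vehicle. Survival was recorded in each group, and the value is the treated-group measurement divided by that of the vehicle-treated control group.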

[1] = dose: 50.0 mg/kg/injection, schedule: Q01DX005 (ip), vehicle: Klucel (hydroxypropylcellulose) (HPC)
[2] = dose: 100.0 mg/kg/injection, schedule: Q01DX005 (ip), vehicle: Klucel (hydroxypropylcellulose) (HPC)
[3] = dose: 50.0 mg/kg/injection, schedule: Q01DX009 (ip), vehicle: saline with Tween-80
[4] = dose: 100.0 mg/kg/injection, schedule: Q01DX009 (ip), vehicle: saline with Tween-80
[5] = dose: 200.0 mg/kg/injection, schedule: Q01DX009 (ip), vehicle: saline with Tween-80
[6] = dose: 50.0 mg/kg/injection, schedule: Q01DX009 (ip), vehicle: saline
[7] = dose: 50.0 mg/kg/injection, schedule: Q01DX005 (ip), vehicle: saline with Tween-80
[8] = dose: 100.0 mg/kg/injection, schedule: Q01DX005 (ip), vehicle: saline with Tween-80
[9] = dose: 200.0 mg/kg/injection, schedule: Q01DX005 (ip), vehicle: saline with Tween-80
[10] = dose: 60.0 mg/kg/injection, schedule: Q01DX005 (ip), vehicle: saline with Tween-80
[11] = dose: 120.0 mg/kg/injection, schedule: Q01DX005 (ip), vehicle: saline with Tween-80
[12] = dose: 240.0 mg/kg/injection, schedule: Q01DX005 (ip), vehicle: saline with Tween-80

Measured: T/C

Oc1ccccc1-c1cc(-c2ccccc2)nc(NCCCCNc2nc(-c3ccccc3)cc(-c3ccccc3O)n2)n1
inactive: dose: 12.5 mg/kg/injection, schedule: Q01DX005 (ip), vehicle: Klucel (hydroxypropylcellulose) (HPC) 97 % of control | dose: 25.0 mg/kg/injection, schedule: Q01DX005 (ip), vehicle: Klucel (hydroxypropylcellulose) (HPC) 97 % of control | [1] 94 % of control | [2] 88 % of control

CCCCCCCCCCCCCCCCC1CCCC1C1CCCC1 (stereo not given)
inactive: dose: 12.5 mg/kg/injection, schedule: Q01DX001 (ip), vehicle: saline with Tween-80 104 % of control | dose: 25.0 mg/kg/injection, schedule: Q01DX001 (ip), vehicle: saline with Tween-80 104 % of control | dose: 50.0 mg/kg/injection, schedule: Q01DX001 (ip), vehicle: saline with Tween-80 104 % of control

O=C1c2ccc[n+]3c2-c2c1ccc[n+]2CC3
inactive: dose: 12.5 mg/kg/injection, schedule: Q01DX001 (ip), vehicle: saline 108 % of control | dose: 25.0 mg/kg/injection, schedule: Q01DX001 (ip), vehicle: saline 115 % of control | dose: 50.0 mg/kg/injection, schedule: Q01DX001 (ip), vehicle: saline 101 % of control

COc1ccc(-c2sc(/N=C/c3ccc(N(C)CCC#N)cc3)c(C#N)c2C)cc1OC
inactive: dose: 3.13 mg/kg/injection, schedule: Q01DX009 (ip), vehicle: Klucel (hydroxypropylcellulose) (HPC) 89 % of control | dose: 6.25 mg/kg/injection, schedule: Q01DX009 (ip), vehicle: Klucel (hydroxypropylcellulose) (HPC) 91 % of control | dose: 12.5 mg/kg/injection, schedule: Q01DX009 (ip), vehicle: Klucel (hydroxypropylcellulose) (HPC) 91 % of control | dose: 25.0 mg/kg/injection, schedule: Q01DX009 (ip), vehicle: Klucel (hydroxypropylcellulose) (HPC) 90 % of control

CC12CCC3(C)OCC(CO)(CO1)N23 (stereo not given)
inactive: [3] 91 % of control | [4] 90 % of control | [5] 91 % of control

CCOC(=O)c1c(C)cn[nH]c1=O
inactive: [3] 96 % of control | [4] 99 % of control | [5] 95 % of control

C=C(CCCC)C(=O)OC
inactive: [3] 102 % of control | [4] 111 % of control | [5] 108 % of control

O=C(OC1(c2nccc3ccccc23)CCN(Cc2ccccc2)CC1)c1ccccc1
inactive: dose: 12.5 mg/kg/injection, schedule: Q01DX009 (ip), vehicle: saline 100 % of control | dose: 25.0 mg/kg/injection, schedule: Q01DX009 (ip), vehicle: saline 101 % of control | [3] 93 % of control | [6] 97 % of control

Oc1cncc2ncccc12
inactive: [6] 106 % of control | dose: 100.0 mg/kg/injection, schedule: Q01DX009 (ip), vehicle: saline 100 % of control | dose: 200.0 mg/kg/injection, schedule: Q01DX009 (ip), vehicle: saline 100 % of control

COC1CC(OC2CCC3(C)C(=CCC4C3C(OC(C)=O)C(OC(=O)CC(C)C)C3(C)C(C(C)=O)CCC43O)C2)OC(C)C1OC1CC(OC)C(OC2CC(OC)C(OC3OC(C)C(O)C(OC)C3O)C(C)O2)C(C)O1 (stereo not given)
inactive: dose: 4.13 mg/kg/injection, schedule: Q01DX005 (ip), vehicle: Klucel (hydroxypropylcellulose) (HPC) 87 % of control | dose: 8.25 mg/kg/injection, schedule: Q01DX005 (ip), vehicle: Klucel (hydroxypropylcellulose) (HPC) 101 % of control

COCC/C=C/CCl
inactive: dose: 100.0 mg/kg/injection, schedule: Q04DX003 (ip), vehicle: saline with Tween-80 100 % of control | dose: 200.0 mg/kg/injection, schedule: Q04DX003 (ip), vehicle: saline with Tween-80 100 % of control | dose: 400.0 mg/kg/injection, schedule: Q04DX003 (ip), vehicle: saline with Tween-80 95 % of control

CC[N+](CC)(CC)Cc1ccccc1
inactive: dose: 6.25 mg/kg/injection, schedule: Q04DX003 (ip), vehicle: saline sonified 109 % of control | dose: 12.5 mg/kg/injection, schedule: Q04DX003 (ip), vehicle: saline sonified 109 % of control | dose: 25.0 mg/kg/injection, schedule: Q04DX003 (ip), vehicle: saline sonified 109 % of control

CN1C(=O)C/C(=C\N2CCCCC2)C1=O
inactive: [7] 98 % of control | [8] 102 % of control

CCCCC(CCCC)=NNC(=S)SC
inactive: [3] 100 % of control | [4] 100 % of control

C/C(=N\OC(=O)c1ccccc1)c1ccccc1
inactive: dose: 100.0 mg/kg/injection, schedule: Q04DX003 (ip), vehicle: saline 102 % of control | dose: 200.0 mg/kg/injection, schedule: Q04DX003 (ip), vehicle: saline 102 % of control | dose: 400.0 mg/kg/injection, schedule: Q04DX003 (ip), vehicle: saline 100 % of control

COC(=O)c1cc(O)c2c(c1C(=O)OC)C[C@H]1[C@@H]3CCC4=CC(=O)CC[C@]4(C)[C@H]3CC[C@]21C
inactive: dose: 1.5 mg/kg/injection, schedule: Q01DX005 (ip), vehicle: saline with Tween-80 93 % of control | dose: 3.0 mg/kg/injection, schedule: Q01DX005 (ip), vehicle: saline with Tween-80 91 % of control | dose: 6.25 mg/kg/injection, schedule: Q01DX005 (ip), vehicle: saline with Tween-80 92 % of control | [9] 86 % of control

CSCCC(NC(=O)C(Cc1c[nH]c2ccccc12)NC(=O)OC(C)(C)C)C(=O)NN (stereo not drawn) (Boc-Trp-Met-NHNH2; configuration not given here)
inactive: dose: 50.0 mg/kg/injection, schedule: Q01DX009 (ip), vehicle: Klucel (hydroxypropylcellulose) (HPC) 104 % of control and 105 % of control | dose: 100.0 mg/kg/injection, schedule: Q01DX009 (ip), vehicle: Klucel (hydroxypropylcellulose) (HPC) 118 % of control | dose: 200.0 mg/kg/injection, schedule: Q01DX009 (ip), vehicle: Klucel (hydroxypropylcellulose) (HPC) 119 % of control

c1ccc([Si]2(c3ccccc3)O[Si](c3ccccc3)(c3ccccc3)O[Si](c3ccccc3)(c3ccccc3)O[Si](c3ccccc3)(c3ccccc3)O2)cc1
inactive: dose: 25.0 mg/kg/injection, schedule: Q01DX009 (ip), vehicle: saline with Tween-80 95 % of control and 97 % of control | [3] 100 % of control and 92 % of control and 93 % of control | [4] 120 % of control and 94 % of control and 95 % of control | [5] 90 % of control (2×) and 93 % of control

CN(C)c1ccc(/C(O)=C\c2ncnc3ccccc23)cc1
inactive: [10] 94 % of control | [11] 94 % of control | [12] 93 % of control

NC(=O)C(CCCN=C(N)N)NC(=O)c1ccccc1 (stereo not given)
inactive: dose: 50.0 mg/kg/injection, schedule: Q01DX005 (ip), vehicle: saline 105 % of control | dose: 100.0 mg/kg/injection, schedule: Q01DX005 (ip), vehicle: saline 99 % of control | dose: 200.0 mg/kg/injection, schedule: Q01DX005 (ip), vehicle: saline 105 % of control

COc1ccc(COc2ccc(C(=O)CCN3CCOCC3)cc2)cc1
inactive: [1] 99 % of control | [2] 99 % of control | dose: 200.0 mg/kg/injection, schedule: Q01DX005 (ip), vehicle: Klucel (hydroxypropylcellulose) (HPC) 99 % of control

COc1cc2ccc(C(C)=O)c(O)c2cc1OC
inactive: dose: 12.5 mg/kg/injection, schedule: Q01DX009 (ip), vehicle: other 92 % of control | dose: 25.0 mg/kg/injection, schedule: Q01DX009 (ip), vehicle: other 101 % of control | dose: 50.0 mg/kg/injection, schedule: Q01DX009 (ip), vehicle: other 90 % of control | dose: 100.0 mg/kg/injection, schedule: Q01DX009 (ip), vehicle: other 108 % of control | dose: 200.0 mg/kg/injection, schedule: Q01DX009 (ip), vehicle: other 97 % of control | dose: 400.0 mg/kg/injection, schedule: Q01DX009 (ip), vehicle: other 99 % of control

NS(=O)(=O)c1ccc(N=Cc2c3ccccc3nc3cc(Cl)ccc23)cc1
inactive: [7] 91 % of control | [8] 88 % of control | [9] 88 % of control

C=C(Br)c1ccc2c(c1)OCO2
inactive: [10] 106 % of control | [11] 102 % of control | [12] 102 % of control

COc1cc(C(C)c2cc3c(cc2OCC(C)=O)OCO3)cc(OC)c1OC (stereo not given)
inactive: [10] 105 % of control | [11] 97 % of control | [12] 106 % of control

From PubChem BioAssay AID330 (DTP/NCI, 2004)
